Measurements from PubChem BioAssay (NCI).
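How tested: cells in 96-well plates exposed to compound for 48 hours at five concentrations. TGI marks complete inhibition of growth.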

Columns and labels:
Experiment in all cases: NCI anticancer screen, dose series, 48 h
COLO 205 colon = tested on: COLO 205 colon
HCT-116 colon = tested on: HCT-116 colon
786-0 renal = tested on: 786-0 renal
SK-MEL-28 melanoma = tested on: SK-MEL-28 melanoma
HOP-62 NSCLC = tested on: HOP-62 NSCLC
MDA-N = tested on: MDA-N
A498 renal = tested on: A498 renal
OVCAR-5 ovarian = tested on: OVCAR-5 ovarian
HS 578T breast = tested on: HS 578T breast
DMS 114 small cell lung = tested on: DMS 114 small cell lung
HOP-18 NSCLC = tested on: HOP-18 NSCLC
DMS 273 small cell lung = tested on: DMS 273 small cell lung
DLD-1 colon = tested on: DLD-1 colon

Row | SMILES | TGI (COLO 205 colon) | TGI (HCT-116 colon) | TGI (786-0 renal) | TGI (SK-MEL-28 melanoma) | TGI (HOP-62 NSCLC) | TGI (MDA-N) | TGI (A498 renal) | TGI (OVCAR-5 ovarian) | TGI (HS 578T breast) | TGI (DMS 114 small cell lung) | TGI (HOP-18 NSCLC) | TGI (DMS 273 small cell lung) | TGI (DLD-1 colon)
1 | O=[N+]([O-])c1ccc(Cl)cc1C=NC12CC3CC(CC(C3)C1)C2 | 97.5 µM | 62.9 µM | > 95.2 µM | > 100 µM | > 100 µM | > 100 µM | > 100 µM | > 100 µM | > 92.6 µM | – | – | – | –
2 | O=C1/C(=C/c2ccco2)NC(=S)N1CN1CCOCC1 | > 100 µM | > 100 µM | > 100 µM | > 100 µM | > 100 µM | > 100 µM | > 100 µM | > 100 µM | > 100 µM | – | – | – | –
3 | C/C=C\C(CC(=O)NCCC1CN(C(=O)c2ccccc2)c2ccccc21)CC(=O)OC (configuration not stated) | > 100 µM | > 100 µM | > 100 µM | > 100 µM | > 100 µM | > 100 µM | > 100 µM | > 100 µM | > 100 µM | – | – | – | –
4 | CCOC12SC(=Nc3ccc(C)cc3)NN1C(=S)N(C)N=C2C (configuration not stated) | > 100 µM | > 100 µM | > 100 µM | > 100 µM | > 100 µM | – | > 100 µM | > 100 µM | – | > 100 µM | > 100 µM | > 100 µM | > 100 µM
5 | CC(C)(C)c1cc(C2COC(=O)COCC(=O)OCCOCCOCCO2)cc(C(C)(C)C)c1O (configuration not stated) | > 100 µM | > 100 µM | 43.3 µM | 38.9 µM | > 100 µM | 38.5 µM | > 91.9 µM | > 100 µM | 45.8 µM | – | – | – | –
6 | CCC(C)C1(O)OC2CC3(C)OC(=CC3=O)/C(C)=C\C3OC(=O)C1(C)C32 (configuration not stated) | 21 µM | 47.2 µM | 81.8 µM | > 100 µM | > 100 µM | 21 µM | 81.9 µM | > 100 µM | > 100 µM | – | – | – | –
7 | O=C(/C=C/c1ccccc1O)/C=C/c1ccccc1O | 3.4 µM | 1.23 µM | 3.22 µM | 3.67 µM | 5.76 µM | 3.93 µM | 4.18 µM | 3.14 µM | 12.3 µM | – | – | – | –
8 | Cc1n(CC(=O)c2ccccc2)nc2sc(N)n[n+]12 | > 100 µM | > 100 µM | > 100 µM | > 100 µM | > 100 µM | > 100 µM | > 100 µM | > 100 µM | > 100 µM | – | – | – | –
9 | O=C1O[C@]2(c3ccccc3)C(c3ccccc3)=C[C@]2(C(=O)c2ccccc2)C1=O | > 100 µM | > 100 µM | 85.7 µM | > 100 µM | > 100 µM | > 100 µM | > 100 µM | > 100 µM | > 100 µM | – | – | – | –
10 | Cc1ccc2nc(Cl)c(/C=N/N3C(=O)/C(=C/c4ccc(N(C)C)cc4)N=C3c3ccccc3)cc2c1 | > 100 µM | > 100 µM | > 100 µM | > 100 µM | > 100 µM | 92.6 µM | > 100 µM | > 100 µM | > 100 µM | – | – | – | –
11 | CC[C@@H]1CC[C@@H]2[C@H](CC[C@]3(C)[C@@H](OS(=O)(=O)c4ccc(C)cc4)CC[C@@H]23)[C@H]1CO | > 100 µM | > 100 µM | > 100 µM | > 100 µM | > 100 µM | > 100 µM | > 100 µM | > 100 µM | > 100 µM | – | – | – | –
12 | O=C(OCc1ccccc1)N1c2cc([N+](=O)[O-])ccc2C(=O)N2CCC[C@H]2C1O (some centres not stated) | > 100 µM | > 100 µM | > 100 µM | > 100 µM | > 100 µM | > 100 µM | > 100 µM | > 100 µM | > 100 µM | – | – | – | –
13 | OCC(O)C(O)C(O)C(/C=N\Nc1ncnc2ccc(Br)cc12)=N/Nc1ncnc2ccc(Br)cc12 (configuration not stated) | > 100 µM | > 100 µM | > 100 µM | > 100 µM | > 100 µM | > 100 µM | > 100 µM | > 100 µM | > 100 µM | – | – | – | –
14 | C#CCOC(=O)C(N)CCCN=C(N)N (configuration not stated) | > 100 µM | > 100 µM | > 100 µM | > 100 µM | > 100 µM | > 100 µM | > 100 µM | > 100 µM | > 100 µM | – | – | – | –
15 | Nc1c(S(=O)(=O)O)cc(Nc2cccc(S(=O)(=O)/C=C/S(=O)(=O)O)c2)c2c1C(=O)c1ccccc1C2=O | > 100 µM | > 100 µM | > 100 µM | > 100 µM | > 100 µM | > 100 µM | > 100 µM | > 100 µM | > 100 µM | – | – | – | –
16 | COc1ccc(/C=N/n2c(Cc3ccc(Cl)cc3)n[nH]c2=O)c(OC)c1 | > 100 µM | > 100 µM | 52.8 µM | > 100 µM | > 100 µM | > 100 µM | 51.1 µM | > 100 µM | 37.3 µM | – | – | – | –
17 | NCCCCNC1(c2cc3ccccc3s2)CCCCC1 | 3.5 µM | 14.9 µM | 3.95 µM | 3.81 µM | 20 µM | 3.39 µM | 6.04 µM | 19.2 µM | 20.4 µM | – | – | – | –
18 | Nc1nc2cc(CNc3ccc(C(=O)NC(CCC(=O)O)C(=O)O)cc3)ccc2nc1-c1ccccc1 (configuration not stated) | > 10 µM | > 10 µM | > 10 µM | > 10 µM | > 10 µM | > 10 µM | > 10 µM | > 10 µM | > 10 µM | – | – | – | –
19 | COc1nc2[nH]ccc2c(=O)n1C | > 100 µM | > 100 µM | – | > 100 µM | – | – | > 100 µM | > 100 µM | – | > 100 µM | > 100 µM | > 100 µM | > 100 µM
20 | COc1cc(-c2nc3nc(N4CCN(C)CC4)ccc3[nH]2)c(OC)c2[nH]c(COC(C)=O)nc12 | > 100 µM | 58.6 µM | 72.4 µM | > 100 µM | > 100 µM | > 100 µM | > 100 µM | > 100 µM | > 100 µM | – | – | – | –
